Source: patent US6914045B2, “Glycopeptide antibiotics” (Wyeth Holdings Corporation, priority 2001, dated 2005)
≈ marks a conversion by molar mass, not a printed value. Where two headings read alike, the source gives them in different places.

Assays:
Assay in all cases: in vitro antibacterial evaluation, MIC by broth dilution
Format in all cases: cell-based
[1] = tested on: Enterococcus sp.; conditions: broth dilution, 18 hours at 35° C.
Experimental: (§1) Methods for in vitro Antibacterial Evaluation (Table 1)
(§2) The minimum inhibitory concentration (MIC), the lowest concentration of the antibiotic which inhibits growth of the test organism, is determined by the broth dilution method using Muller-Hinton II […] (Baltimore Biological Laboratories) following the recommendations of the National Committee for Clinical Laboratory Standards [Methods for dilution antimicrobial susceptibility tests for bacteria that grow aerobically, approved standard M7-A2, National Committee for Clinical Laboratory Standards, Villanova, Pa.].
(§3) An inoculum level of 5×10^5 CFU/mL, and a range of antibiotic concentrations (64-0.06 μg/mL) is used. […] The test organisms include a spectrum of Gram-positive bacteria comprised of Staphylococcus sp., Streptococcus sp. and Enterococcus sp. These organisms include recent clinical isolates that are resistant to methicillin, penicillin and/or vancomycin.

[2] = tested on: Staphylococcus sp.; conditions: broth dilution, 18 hours at 35° C.
Experimental: as §1, §2, §3

[3] = tested on: Streptococcus sp.; conditions: broth dilution, 18 hours at 35° C.
Experimental: as §1, §2, §3

[4] = tested on: Escherichia coli; conditions: Escherichia coli, broth dilution, 18 hours at 35° C.
Outline: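 MIC is the lowest antibiotic concentration (tested 64-0.06 μg/mL) preventing growth of a 5×10^5 CFU/mL inoculum. Determined by broth dilution in Mueller-Hinton II medium following NCCLS standard M7-A2.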

**Q.** What does the source list for `Cc1cccc(Oc2ccc(-c3nc4cc(C[C@@H]5NC(=O)[C@H](C(C)c6ccccc6)NC(=O)CNC(=O)[C@H](CO)NC(=O)[C@H](C(O)C6CNC(=N)N6)NC(=O)[C@H](C(O)C6CNC(=N)N6)NC5=O)ccc4o3)cc2)c1` (stereo partly drawn) [Example 41, Cyclo[3-[2-[4-(3-methylphenoxy)phenyl]benzoxazol-5-yl]alanyl-3-(2-iminoimidazolidin-4-yl)-seryl-3-(2-iminoimidazolidin-4-yl)serylserylglycyl-β-methylphenylalanyl]]?
**A.** MIC Enterococcus faecalis (ATCC 29212) ([1]; strain ATCC 29212): 64 µg/mL (≈ 63 µM); MIC Enterococcus faecalis (GC 2242) ([1]; strain GC 2242): 64 µg/mL (≈ 63 µM); MIC Enterococcus faecium (GC 2243) ([1]; strain GC 2243): 64 µg/mL (≈ 63 µM); MIC Enterococcus faecalis (GC 2691) ([1]; strain GC 2691): 64 µg/mL (≈ 63 µM); MIC Enterococcus faecalis (GC 3059) ([1]; strain GC 3059): >64 µg/mL; MIC Enterococcus faecalis (GC 4552) ([1]; strain GC 4552): 64 µg/mL (≈ 63 µM); MIC Enterococcus faecalis (GC 4553) ([1]; strain GC 4553): 64 µg/mL (≈ 63 µM); MIC Enterococcus faecalis (GC 4554) ([1]; strain GC 4554): 64 µg/mL (≈ 63 µM); MIC Enterococcus faecium (GC 4556) ([1]; strain GC 4556): 32 µg/mL (≈ 31.5 µM); MIC Enterococcus faecium (GC 4557) ([1]; strain GC 4557): 64 µg/mL (≈ 63 µM); MIC Enterococcus avium (GC 4558) ([1]; strain GC 4558): 64 µg/mL (≈ 63 µM); MIC Enterococcus faecalis (GC 6189) ([1]; strain GC 6189): >64 µg/mL; MIC ([1]; strain ATCC 29212, read-out: MIC Enterococcus faecalis (ATCC 29212)): 64 µg/mL (≈ 63 µM); MIC ([1]; strain GC 2242, read-out: MIC Enterococcus faecalis (GC 2242)): 64 µg/mL (≈ 63 µM); MIC ([1]; strain GC 2243, read-out: MIC Enterococcus faecium (GC 2243)): 64 µg/mL (≈ 63 µM); MIC ([1]; strain GC 2691, read-out: MIC Enterococcus faecalis (GC 2691)): 64 µg/mL (≈ 63 µM); MIC ([1]; strain GC 3059, read-out: MIC Enterococcus faecalis (GC 3059)): > 64 µg/mL; MIC ([1]; strain GC 4552, read-out: MIC Enterococcus faecalis (GC 4552)): 64 µg/mL (≈ 63 µM); MIC ([1]; strain GC 4553, read-out: MIC Enterococcus faecalis (GC 4553)): 64 µg/mL (≈ 63 µM); MIC ([1]; strain GC 4554, read-out: MIC Enterococcus faecalis (GC 4554)): 64 µg/mL (≈ 63 µM); MIC ([1]; strain GC 4556, read-out: MIC Enterococcus faecium (GC 4556)): 32 µg/mL (≈ 31.5 µM); MIC ([1]; strain GC 4557, read-out: MIC Enterococcus faecium (GC 4557)): 64 µg/mL (≈ 63 µM); MIC ([1]; strain GC 4558, read-out: MIC Enterococcus avium (GC 4558)): 64 µg/mL (≈ 63 µM); MIC ([1]; strain GC 6189, read-out: MIC Enterococcus faecalis (GC 6189)): > 64 µg/mL; MIC ([2]; Staphylococcus, strain GC 4543, read-out: MIC Staphylococcus aureus-SMITH (GC 4543)): > 64 µg/mL; MIC ([2]; Staphylococcus, strain GC 4547, read-out: MIC Coagulase Negative Staphylococcus (GC 4547)): 64 µg/mL (≈ 63 µM); MIC ([2]; Staphylococcus, strain GC 4548, read-out: MIC Coagulase Negative Staphylococcus (GC 4548)): > 64 µg/mL; MIC ([2]; Staphylococcus, strain GC 4549, read-out: MIC Coagulase Negative Staphylococcus (GC 4549)): 32 µg/mL (≈ 31.5 µM); MIC ([2]; Staphylococcus, strain GC 4551, read-out: MIC Coagulase Negative Staphylococcus (GC 4551)): 64 µg/mL (≈ 63 µM); MIC ([2]; strain ATCC 29213, read-out: MIC Staphylococcus aureus (ATCC 29213)): > 64 µg/mL; MIC ([2]; strain GC 1131, read-out: MIC Staphylococcus aureus (GC 1131)): > 64 µg/mL; MIC ([2]; strain GC 3051, read-out: MIC Staphylococcus aureus (GC 3051)): > 64 µg/mL; MIC ([2]; strain GC 3053, read-out: MIC Staphylococcus aureus (GC 3053)): > 64 µg/mL; MIC ([2]; strain GC 4541, read-out: MIC Staphylococcus aureus (GC 4541)): > 64 µg/mL; MIC ([2]; strain GC 4542, read-out: MIC Staphylococcus aureus (GC 4542)): > 64 µg/mL; MIC ([2]; strain GC 4544, read-out: MIC Staphylococcus aureus (GC 4544)): > 64 µg/mL; MIC ([2]; strain GC 4545, read-out: MIC Staphylococcus aureus (GC 4545)): > 64 µg/mL; MIC Staphylococcus aureus (ATCC 29213) ([2]; strain ATCC 29213): >64 µg/mL; MIC Staphylococcus aureus (GC 3051) ([2]; strain GC 3051): >64 µg/mL; MIC Staphylococcus aureus (GC 3053) ([2]; strain GC 3053): >64 µg/mL; MIC Staphylococcus aureus (GC 4541) ([2]; strain GC 4541): >64 µg/mL; MIC Staphylococcus aureus (GC 4542) ([2]; strain GC 4542): >64 µg/mL; MIC Staphylococcus aureus (GC 4544) ([2]; strain GC 4544): >64 µg/mL; MIC Staphylococcus aureus (GC 4545) ([2]; strain GC 4545): >64 µg/mL; MIC ([2]; strain GC 4546, read-out: MIC Staphylococcus haemolyticus (GC 4546)): 64 µg/mL (≈ 63 µM); MIC Streptococcus pneumoniae (ATCC 6301) ([3]; strain ATCC 6301): 64 µg/mL (≈ 63 µM); MIC Streptococcus pneumoniae (GC 1894) ([3]; strain GC 1894): 64 µg/mL (≈ 63 µM); MIC Streptococcus pyogenes (GC 4563) ([3]; strain GC 4563): 32 µg/mL (≈ 31.5 µM); MIC Streptococcus agalactiae (GC 4564) ([3]; strain GC 4564): 64 µg/mL (≈ 63 µM); MIC Streptococcus pneumoniae (GC 4565) ([3]; strain GC 4565): >64 µg/mL; MIC ([3]; strain ATCC 6301, read-out: MIC Streptococcus pneumoniae (ATCC 6301)): 64 µg/mL (≈ 63 µM); MIC ([3]; strain GC 1894, read-out: MIC Streptococcus pneumoniae (GC 1894)): 64 µg/mL (≈ 63 µM); MIC ([3]; strain GC 4563, read-out: MIC Streptococcus pyogenes (GC 4563)): 32 µg/mL (≈ 31.5 µM); MIC ([3]; strain GC 4564, read-out: MIC Streptococcus agalactiae (GC 4564)): 64 µg/mL (≈ 63 µM); MIC ([3]; strain GC 4565, read-out: MIC Streptococcus pneumoniae (GC 4565)): > 64 µg/mL; MIC ([4]; ATCC25922, strain ATCC 25922, read-out: MIC Escherichia coli (ATCC 25922)): > 64 µg/mL; MIC ([4]; strain GC 4559, read-out: MIC Escherichia coli (GC 4559)): > 64 µg/mL; MIC ([4]; strain GC 4560, read-out: MIC Escherichia coli (GC 4560)): > 64 µg/mL
